Source: US5264423A, “Inhibitors for replication of retroviruses and for the expression of oncogene products” (The United States of America as represented by the …, priority 1992, dated 1993)
“Also recorded” adds a separate entry of the source.

How the values were obtained:
HL60 cells = experiment: HL60 cell growth (cell count); type: cell-based; conditions: in words
[1] = system: HIV (HTLV-IIIB) in ATH8 cells; experiment: HIV cytopathic effect inhibition (viable ATH8 cells, trypan blue); conditions: for protection of target cells, single agent: each agent alone (2 micromoles dideoxyadenosine; 5 micromoles S-dC14), 1000 virions per cell, day 13; for anti-HIV activity (cytopathic effect): in words
Experimental: FIGS. 1A-1D and Table 1, The target cells (2×10^5 ATH8 cells) in each tube were pretreated with the stated concentration of each oligomer for 16 hours and then incubated with Polybrene for 45 minutes. After centrifugation, each set of pelleted cells was exposed to HIV (500 virions per cell, which is a much higher dose than the minimal cytopathic dose) and incubated for one hour. Complete media (2 ml RPMI1640) supplemented with L-glutamine (4 mti), 2-mercaptoethanol ([…]), penicillin (50 unit/ml), and streptomycin (50 micrograms/ml), and containing 15% fetal calf serum and IL-2 (15% of conventional IL-2 from Advanced Biotechnologies, Inc., Silver Spring, MD, plus 20 unit/ml of recombinant IL-2 from Amgen Biochemicals, Thousand Oaks, CA) with the various concentrations of oligomers added. The number of viable cells were counted in a hemocytometer using the trypan blue exclusion method for day 7 following exposure to the virus. Filled columns represent non-virus exposed cells, and dotted columns represent virus exposed cells.
The HIV cytopathic effect inhibition with oligodeoxynucleotides was performed with 18 hours of pretreatment of 2×10^5 target cells (ATH8 cells) with oligos prior to exposure to HTLV-IIIB. After this pretreatment, target cells were treated with Polybrene (2 micrograms/ml) for one hour. The target cells were then, respectively, exposed to HTLV-IIIB virus (generally 500 virions per cell in this series of experiments) for one hour. The 2×10^5 cells were then diluted to 2 ml with complete media containing IL-2 and various concentrations of oligos.
The number of viable cells was counted in a hemocytometer using the trypan blue exclusion method on day 7 following exposure to the virus. Each set of data were obtained from simultaneously performed experiments so as to make a precise comparison among agents tested.
The target cells (2×10^5 ATH8 cells per tube) were preincubated with the stated concentrations of S-dC14 for 24 hours and pretreated with 2 micrograms/ml of Polybrene for 45 minutes. After centrifugation, pelleted cells were exposed to the HIV (1000 virions per cell) for one hour. The cells were incubated in 2 ml of complete media containing IL-2, and the viable cells were counted on day 13.
On day 13 after the exposure to the virus, viable cells were counted by the trypan blue dye exclusion method.

[2] = system: de novo HIV DNA synthesis in ATH8 cells; experiment: Southern blot of de novo HIV DNA synthesis; type: cell-based; conditions: positive control, 50 micromoles (lanes E and J)
Text: Target cells (1×10^7 ATH8 cells) were pretreated with or without S-dC28 at various concentrations for sixteen hours, then treated with Polynrene, exposed to HIV (500 virus particles per cell), resuspended, and cultured in the presence or absence of S-dC28. On days 4 and 7 following the exposure to the virus, high molecular weight DNA was extracted, digested with Asp718 (a Kpn I isoschizomer from Boehringer-tiannheim, Indianapolis, IN), and subjected to Southern blot analysis hybridized with a labelled insert of molecular clone of the env region of HTLV-III (BH10) containing a 1.3 Kb Bgl II fragment.
FIGS. 6A-6D show the inhibitor effect of the phosphorothioate oligodeoxycytidine analog (S-dC28) on de novo HIV DNA synthesis in target cells. On days 4 and 7 following the exposure to the virus, a substantial amount of viral DNA was detected by Southern blot analysis without antiviral agents.
On day 4, shown in lanes A-E, and day 7, shown in lanes F-J, following exposure to the virus, high molecular weight DNA was extracted. Lanes A and F contain DNA from ATH8 cells that were exposed to the virus and not protected by S-dC28. Lanes B and G, C and H, D and I, contain DNA from ATH8 cells pretreated and cultured with 1 micromole, 5 micromoles, and 7 micromoles S-dC28, respectively. Lanes E and J contain DNA from ATH8 cells treated with 50 micromoles 2', 3'-dideoxyadenonsine, and lane K contains DNA from ATH8 cells that was not exposed to the virus.

ATH8 cells = experiment: Cytotoxicity of ODNs (Table 2); type: cell-based
Text: Since phosphorothioate ODNs which are not anti-sense sequences appear to be very effective antiviral agents, an attempt was made to clarify the nature of the base composition effect.

gamma-interferon = experiment: Induction of gamma-interferon in culture supernatant; type: cell-based; conditions: supernatant of the culture
Text: Another mechanism which should be considered is induction of interferon production such as that proposed for phosphorothioate analogs of poly-r(I-C). […] Also, since there are no data to support the concept that phosphorothioate internucleotide linkages have a thiol character, and can thus form disulfides, the mechanism of action would likely be different from that proposed for antiviral polynucleotides having thiolated bases such as 5-mercapto-cytosine or -uracil.

[3] = Stability in in vitro test media followed by 31P NMR; type: in vitro ADME
Text: The phosphorothioate oligodeoxynucleotides of the present invention have suitable chemical characteristics, namely, the ability to hybridize with complementary DNA/MRNA under physiological conditions, and better solubility properties relative to methylphosphonates. Moreover, the thioesters are as soluble in biological media as the parent compounds.
Thus, it is believed that it is mainly the relative resistance of the phosphorothioate analogs to nucleases that preserves them relative to n-ODNs, and allows them to reach and remain at their target site. This was supported in relation to the media used in the in vitro test system by following the 31P NMR spectra of the n-ODN-1 and S-ODN-1 compounds as a function of time.

Stability in human serum = type: in vitro ADME; conditions: 31P NMR
exo- and endonuclease P1 = experiment: Nuclease susceptibility, P1 nuclease; type: in vitro ADME
Text: (§1) Several oligodeoxynucleotides were studied with regard to DNase sensitivity, cf. Table 5. These include cytidine homopolymers, ODN-4 (an anti-message 28-mer complementary to the 3' region of the art/trs region of HIV BH10 clone), and myc-1 (a 15-mer complementary to the initiation codon region of the C-myc oncogene). The DNases employed were predominantly endonuclease S1, the exo- and endonuclease P1, and snake venom (SV) phosphodiesterase. The concentration of S1 nuclease was ten-fold higher (100 micromoles/ml) for reactions of oligo-dc, since both the normal and PS analog were degraded extremely slowly be this enzyme. S1 and P1 nuclease digestion proceeded at 2-45 times more slowly for the S-ODNs than for the normal oligomers, with the […] being somewhat more readily digested than the 28-mer.

endonuclease S1 = experiment: Nuclease susceptibility, S1 nuclease; type: in vitro ADME
Text: as §1

[4] = system: snake venom (SV) phosphodiesterase; experiment: Nuclease susceptibility, snake venom phosphodiesterase; type: in vitro ADME
Text: as §1

5'-CTG AAG TGG CAT GAG (CTGAAGTGGCATGAG; all phosphorothioate, sugars by position and methylation of C not given here) [non-sense sequence, reference compound]
effect on HL60 cell proliferation (HL60 cells): none of the controls used, namely, the non-sense sequence, has shown similar activity | effect on HL60 cell proliferation (HL60 cells; listed as nonsense S-ODN): not all nonsense S-ODN concentrations affected cell proliferation

Nc1ncnc2c1ncn2[C@H]1CC[C@@H](CO)O1 [2', 3'-dideoxyadenosine, reference compound]
protection of target cells, single agent [1]: only marginal protective effects | inhibition of de novo synthesis of viral DNA [2]: significantly inhibited the de novo synthesis of viral DNA | inhibition of de novo synthesis of viral DNA ([2]; listed as 2', 3'-dideoxyadenonsine): detected only in lanes A and F

Nc1ccn([C@H]2CC[C@@H](CO)O2)c(=O)n1 [2', 3'-dideoxycytidine, reference compound]
protection against the virus / antiviral activity ([1]; 0.5 micromoles): complete antiviral activity

(dC)n n = 14 [S-dC14]
CYTOTOXICITY (%) (ATH8 cells; 1 uM): 0% | CYTOTOXICITY (%) (ATH8 cells; 5 uM): 0% | CYTOTOXICITY (%) (ATH8 cells; 10 uM): 0% | CYTOTOXICITY (%) (ATH8 cells; 25 uM): 0% | ANTI-VIRAL EFFECT (%) ([1]; 1 uM): 25% | ANTI-VIRAL EFFECT (%) ([1]; 5 uM): 100% | ANTI-VIRAL EFFECT (%) ([1]; 10 uM): 100% | ANTI-VIRAL EFFECT (%) ([1]; 25 uM): 100% | protection against the virus ([1]; 5 micromoles (65 micromole equivalents), FIGS. 6B-6D): only a moderate effect | protection of target cells, single agent [1]: only marginal protective effects | anti-HIV activity (cytopathic effect) [1]: most potent antiviral compound among those tested in this series of experiments | anti-HIV activity (cytopathic effect) ([1]; listed as 14-mer oligo-dc): substantial protection against HIV cytopathic effect | induction of gamma-interferon (gamma-interferon): No induction of gamma-interferon

d-(Cs As Ts As Gs Gs As Gs As Ts Gs Cs Cs T) [S-ODN-3]
CYTOTOXICITY (%) (ATH8 cells; 1 uM): 0% | CYTOTOXICITY (%) (ATH8 cells; 5 uM): 0% | CYTOTOXICITY (%) (ATH8 cells; 10 uM): 0% | CYTOTOXICITY (%) (ATH8 cells; 25 uM): 13% | ANTI-VIRAL EFFECT (%) ([1]; 1 uM): 0% | ANTI-VIRAL EFFECT (%) ([1]; 5 uM): 6% | ANTI-VIRAL EFFECT (%) ([1]; 10 uM): 44% | ANTI-VIRAL EFFECT (%) ([1]; 25 uM): 94%

d-(Gs Gs As Gs As Cs As Gs Cs Gs As Cs Gs A) [S-ODN-2]
CYTOTOXICITY (%) (ATH8 cells; 1 uM): 0% | CYTOTOXICITY (%) (ATH8 cells; 5 uM): 0% | CYTOTOXICITY (%) (ATH8 cells; 10 uM): 0% | CYTOTOXICITY (%) (ATH8 cells; 25 uM): 6% | ANTI-VIRAL EFFECT (%) ([1]; 1 uM): 11% | ANTI-VIRAL EFFECT (%) ([1]; 5 uM): 56% | ANTI-VIRAL EFFECT (%) ([1]; 10 uM): 100% | ANTI-VIRAL EFFECT (%) ([1]; 25 uM): 78% | anti-HIV activity (cytopathic effect) [1]: protected against HIV

d-(Ts Cs Gs Ts Cs Gs Cs Ts Gs Ts Cs Ts Cs C) [S-ODN-1]
CYTOTOXICITY (%) (ATH8 cells; 1 uM): 0% | CYTOTOXICITY (%) (ATH8 cells; 5 uM): 0% | CYTOTOXICITY (%) (ATH8 cells; 10 uM): 0% | CYTOTOXICITY (%) (ATH8 cells; 25 uM): 20% | ANTI-VIRAL EFFECT (%) ([1]; 1 uM): 0% | ANTI-VIRAL EFFECT (%) ([1]; 5 uM): 43% | ANTI-VIRAL EFFECT (%) ([1]; 10 uM): 72% | ANTI-VIRAL EFFECT (%) ([1]; 25 uM): 95% | anti-HIV activity (cytopathic effect) [1]: substantial activity against HIV; also recorded: protected against HIV | phosphorothioate bonds after 10 days ([3]; 10 days): still intact after 10 days | decomposition based on the total signal intensity ([3]; after 10 days): less than 5% | degradation / half-life in media used in the in vitro test system ([3]; up to a week): no significant degradation even after a week

dAACGTTGAGGGGCAT [O-myc-1, reference compound]
half-life in 50% human serum (Stability in human serum): two to three days | Nuclease susceptibility, t1/2 (exo- and endonuclease P1): 69 s | Nuclease susceptibility, t1/2 (endonuclease S1): 36 s | Nuclease susceptibility, t1/2 [4]: 28 s

dTCGTCGCTGTCTCCGCTTCTTCCTGCCA [O-ODN-4, reference compound]
Nuclease susceptibility, t1/2 (exo- and endonuclease P1): 72 s | Nuclease susceptibility, t1/2 [4]: 20 s

recombinant gamma-interferon: recombinant alpha- or gamma-interferon
inhibition of the cytopathic effect ([1]; 1000 units added directly to the cultures): did not inhibit the cytopathic effect
